Assay results reported in patent US20250360185A1, “COMPOSITIONS COMPRISING PEDF-DERIVED SHORT PEPTIDES FOR THE TREATMENT OF DRY EYE DISEASES” (BRIM Biotechnology, Inc., priority 2022, published 2025).
“Also recorded” adds a separate entry of the source.

Key:
Format in all cases: in vivo, human
subjects with DED [1] = experiment: Visual analog scale (VAS) ocular symptom ratings, clinical study with CAE model; conditions: pre-CAE and post-CAE evaluations
Protocol: (§1) A multi-center, randomized, double masked, placebo controlled clinical study was conducted to assess the safety and efficacy of BRM421 ophthalmic solution (OS) in subjects with DED using a controlled adverse environment (CAE®) model (Ora, Inc., Andover, MA, USA). CAE® uses controlled ocular surface stress to exacerbate the signs and symptoms of DED in a safe and controllable manner.
(§2) During the first visit (Day-7±1), the subjects were screened, evaluated before CAE®, exposed to CAE®, evaluated after CAE®, and started with the placebo run-in period (7±1 days). During the 7-day study run-in period (for the purpose of subject selection) prior to randomization, all subjects received Placebo OS bilaterally, three times daily (TID). During the second visit, subjects were evaluated before CAE®, exposed to CAE®, and evaluated after CAE®. These evaluations formed the baseline measurements. The subjects were then randomized into two groups to receive either BRM421 ophthalmic solution (OS) or Placebo OS (Vehicle) bilaterally three times daily (TID) for 14 days from Visit 2 to Visit 4.
During these visits, subjects were evaluated for symptom efficacy. Specifically, visual analog scale (VAS) was measured by asking subjects to rate each ocular symptom due to ocular dryness. Symptoms assessed include burning/stinging, itching, foreign body sensation, blurred vision, eye dryness, photophobia, and pain.

subjects with DED [2] = experiment: Ora Ocular Discomfort & 4-Symptom Questionnaire (ODS) diary, clinical study with CAE model; conditions: for Diary Dryness Change from Baseline, ANCOVA LS Mean (SE) / Diary Dryness Change from Baseline, Mean (SD) / Diary Burning Change from Baseline, ANCOVA LS Mean (SE) / Diary Ocular Discomfort Change from Baseline, ANCOVA LS Mean (SE) / Diary Burning Change from Baseline, Mean (SD) / Diary Ocular Discomfort Change from Baseline, Mean (SD): ITT observed data; for Diary Dryness Change from Baseline, Mean (SD) / Diary Burning Change from Baseline, Mean (SD) / Diary Ocular Discomfort Change from Baseline, Mean (SD): score 0 = None to 5 = Worst
Protocol: as §1, §2
Subjects were also asked to grade the severity of their dry eye disease symptoms in their diary in the morning and in the evening before instilling the study drug. The Ora Ocular Discomfort & 4-Symptom Questionnaire (ODS Questionnaire) was used, which included rating the severity of 5 symptoms: ocular discomfort, burning, dryness, grittiness, and stinging. Each symptom rating ranged from 0 to 5, where 0=None and 5=Worst.

subjects with DED [3] = experiment: Corneal damage repair assessed with fluorescein staining, clinical study
Protocol: as §1, §2
Severe dry eye cases can lead to cornea damages, which can be assessed with fluorescein staining. PDSP of the invention can treat DED. In addition, these PDSP can also repair corneal damages. […] The selective efficacies of BRM421 treatment in cataract patients are unexpected.

[4] = Day 1 to Day 7, morning, pre-CAE baseline
[5] = Day 8 to 15, Evening, score 0-5
[6] = Day 8 to 15, Morning, score 0-5

“SLGAEQRTESIIHRALYYDLISSPDIHGT (listed as Homo sapiens) [BRM421, PEDF-derived short peptide, 29mer, residues 93-121; tested as BRM421 ophthalmic solution (OS)]” was tested, and the “VAS dryness compared to placebo (FIG. 4F)” value (subjects with DED [1]; subjects with cataract) was “significant improvements”, the “VAS dryness compared to placebo (FIG. 4E)” value (subjects with DED [1]; subjects without cataract) was “did not show significant improvements” and the “Diary Dryness Change from Baseline, ANCOVA LS Mean (SE)” value (subjects with DED [2]; Day 1 to 7, Evening, score 0-5) was −0.243 (0.0484). For the same sequence, the “Diary Dryness Change from Baseline, Mean (SD)” value (subjects with DED [2]; Day 1 to 7, Evening) was −0.241 (0.5137), the “Diary Dryness Change from Baseline, ANCOVA LS Mean Difference (SE), BRM421 OS − Placebo” value (subjects with DED [2]; Day 1 to 7, Evening, score 0-5) was −0.145 (0.0671) and the “Diary Dryness Change from Baseline, Two-Sample t-test Mean Difference (SE), BRM421 OS − Placebo” value (subjects with DED [2]; Day 1 to 7, Evening, score 0-5) was −0.140 (0.0673). For the same sequence, the “Diary Burning Change from Baseline, ANCOVA LS Mean (SE)” value (subjects with DED [2]; Day 1 to 7, Morning, score 0-5) was −0.254 (0.0528), the “Diary Ocular Discomfort Change from Baseline, ANCOVA LS Mean (SE)” value (subjects with DED [2]; Day 1 to 7, Morning, score 0-5) was −0.138 (0.0518) and the “Diary Burning Change from Baseline, Mean (SD)” value (subjects with DED [2]; Day 1 to 7, Morning) was −0.256 (0.5580). For the same sequence, the “Diary Ocular Discomfort Change from Baseline, Mean (SD)” value (subjects with DED [2]; Day 1 to 7, Morning) was −0.149 (0.5064), the “Diary Burning Change from Baseline, ANCOVA LS Mean Difference (SE), BRM421 OS − Placebo” value (subjects with DED [2]; Day 1 to 7, Morning, score 0-5) was −0.173 (0.0731) and the “Diary Burning Change from Baseline, Two-Sample t-test Sample Mean Difference (SE), BRM421 OS − Placebo” value (subjects with DED [2]; Day 1 to 7, Morning, score 0-5) was −0.172 (0.0742). The “Diary Ocular Discomfort Change from Baseline, ANCOVA LS Mean Difference (SE), BRM421 OS − Placebo” value (subjects with DED [2]; Day 1 to 7, Morning, score 0-5) was −0.146 (0.0717), the “Diary Ocular Discomfort Change from Baseline, Two-Sample t-test Sample Mean Difference (SE), BRM421 OS − Placebo” value (subjects with DED [2]; Day 1 to 7, Morning, score 0-5) was −0.152 (0.0727) and the “Diary ocular discomfort and burning improvement from baseline compared to placebo” value (subjects with DED [2]; Day 1 to Day 7, evening) was “not significant in the evening”. The “Diary dryness improvement from baseline compared to placebo (FIG. 3A)” value (subjects with DED [2]; Day 1 to Day 7, evening, pre-CAE baseline) was “significantly better improvement”, the “Diary dryness improvement from baseline compared to placebo (FIG. 3A)” value (subjects with DED [2]; [4]) was “not significantly better in the morning” and the “Diary ocular discomfort and burning improvement from baseline compared to placebo” value (subjects with DED [2]; [4]) was “significantly better improvements”. For the same sequence, the “Diary Dryness Change from Baseline, ANCOVA LS Mean (SE)” value (subjects with DED [2]; [5]) was −0.377 (0.0651), the “Diary Dryness Change from Baseline, Mean (SD)” value (subjects with DED [2]; Day 8 to 15, Evening) was −0.382 (0.6917) and the “Diary Dryness Change from Baseline, ANCOVA LS Mean Difference (SE), BRM421 OS − Placebo” value (subjects with DED [2]; [5]) was −0.036 (0.0901). For the same sequence, the “Diary Dryness Change from Baseline, Two-Sample t-test Sample Mean Difference (SE), BRM421 OS − Placebo” value (subjects with DED [2]; [5]) was −0.029 (0.0915), the “Diary Burning Change from Baseline, ANCOVA LS Mean (SE)” value (subjects with DED [2]; [6]) was −0.313 (0.0640) and the “Diary Ocular Discomfort Change from Baseline, ANCOVA LS Mean (SE)” value (subjects with DED [2]; [6]) was −0.223 (0.0656). The “Diary Burning Change from Baseline, Mean (SD)” value (subjects with DED [2]; Day 8 to 15, Morning) was −0.332 (0.7199), the “Diary Ocular Discomfort Change from Baseline, Mean (SD)” value (subjects with DED [2]; Day 8 to 15, Morning) was −0.248 (0.6696) and the “Diary Burning Change from Baseline, ANCOVA LS Mean Difference (SE), BRM421 OS − Placebo” value (subjects with DED [2]; [6]) was −0.048 (0.0884). The “Diary Burning Change from Baseline, Two-Sample t-test Sample Mean Difference (SE), BRM421 OS − Placebo” value (subjects with DED [2]; [6]) was −0.048 (0.0939), the “Diary Ocular Discomfort Change from Baseline, ANCOVA LS Mean Difference (SE), BRM421 OS − Placebo” value (subjects with DED [2]; [6]) was −0.049 (0.0906) and the “Diary Ocular Discomfort Change from Baseline, Two-Sample t-test Sample Mean Difference (SE), BRM421 OS − Placebo” value (subjects with DED [2]; [6]) was −0.058 (0.0936). The “ODS dryness versus placebo (FIG. 3B)” value (subjects with DED [2]; Visit 3, both pre-CAE and post-CAE evaluations as baselines) was “no significant difference”, the “ODS burning and ODS stinging versus placebo (FIG. 3B)” value (subjects with DED [2]; Visit 3, post-CAE evaluations) was “significant effects” and the “Corneal damage repair compared to placebo (FIG. 5D)” value (subjects with DED [3]; patients with cataract and surgery) was “slight improvements”. For the same sequence, the “Corneal damage repair compared to placebo (FIG. 5C)” value (subjects with DED [3]; patients with cataract but without surgery) was “significant improvements; also recorded: more significant”, the “Corneal damage repair compared to placebo (FIG. 5B)” value (subjects with DED [3]; subjects with cataract) was “significant improvements” and the “Corneal damage repair (FIG. 5A)” value (subjects with DED [3]; subjects without cataract) was “did not show significant improvements”.
